Assay results: ChEMBL document CHEMBL6092180 (Eur J Med Chem, 2024)
Values after ≈ are worked out from the molar mass of the structure shown.

Tests used:
Assay type in all cases: functional
Candida albicans [1] = test: Antifungal activity against Candida albicans GIM 2.194 assessed as inhibition of fungal growth by CLSI M27-A3 guidelines based method
Candida parapsilosis = test: Antifungal activity against Candida parapsilosis GIM 2.190 assessed as inhibition of fungal growth by CLSI M27-A3 guidelines based method; conditions: Lodderomyces parapsilosis
Nakaseomyces glabratus = test: Antifungal activity against Candida glabrata assessed as inhibition of fungal growth by CLSI M27-A3 guidelines based method
Candida albicans [2] = test: Antifungal activity against Candida albicans SC5314 assessed as inhibition of fungal growth by CLSI M27-A3 guidelines based method
Candida tropicalis = test: Antifungal activity against Candida tropicalis GIM 2.183 assessed as inhibition of fungal growth by CLSI M27-A3 guidelines based method
Pichia kudriavzevii = test: Antifungal activity against Candida krusei GIM 2.1 assessed as inhibition of fungal growth by CLSI M27-A3 guidelines based method
Cryptococcus neoformans = test: Antifungal activity against Cryptococcus neoformans CGMCC 2.3161 assessed as inhibition of fungal growth by CLSI M27-A3 guidelines based method

SMILES | MIC80 (Candida albicans [1]) | MIC80 (Candida parapsilosis) | MIC80 (Nakaseomyces glabratus) | MIC80 (Candida albicans [2]) | MIC80 (Candida tropicalis) | MIC80 (Pichia kudriavzevii) | MIC80 (Cryptococcus neoformans)
CN(Cc1ccc(C#Cc2cccc(Cl)c2)cc1)CC(O)(Cn1cncn1)c1ccc(F)cc1F (stereo unspecified) | 0.006 µg/mL (≈ 0.0122 µM) | 0.006 µg/mL (≈ 0.0122 µM) | 0.2 µg/mL (≈ 0.406 µM) | 0.013 µg/mL (≈ 0.0264 µM) | 0.013 µg/mL (≈ 0.0264 µM) | 0.01 µg/mL (≈ 0.0203 µM) | 0.013 µg/mL (≈ 0.0264 µM)
C[C@@H](N(C)Cc1ccc(C#Cc2ccc(C(C)(C)C)cc2)cc1)[C@](O)(Cn1cncn1)c1ccc(F)cc1F | 3.2 µg/mL (≈ 6.05 µM) | 1.6 µg/mL (≈ 3.03 µM) | 3.2 µg/mL (≈ 6.05 µM) | 1.6 µg/mL (≈ 3.03 µM) | 1.6 µg/mL (≈ 3.03 µM) | 3.2 µg/mL (≈ 6.05 µM) | 3.2 µg/mL (≈ 6.05 µM)
CN(Cc1ccc(C#Cc2ccccc2I)cc1)CC(O)(Cn1cncn1)c1ccc(F)cc1F (stereo unspecified) | 0.006 µg/mL (≈ 0.0103 µM) | 0.006 µg/mL (≈ 0.0103 µM) | 1.6 µg/mL (≈ 2.74 µM) | 0.013 µg/mL (≈ 0.0222 µM) | 0.006 µg/mL (≈ 0.0103 µM) | 0.8 µg/mL (≈ 1.37 µM) | 0.025 µg/mL (≈ 0.0428 µM)
CN(Cc1ccc(C#Cc2cc(F)c(F)cc2F)cc1)CC(O)(Cn1cncn1)c1ccc(F)cc1F (stereo unspecified) | 0.006 µg/mL (≈ 0.0117 µM) | 0.006 µg/mL (≈ 0.0117 µM) | 0.01 µg/mL (≈ 0.0195 µM) | 0.006 µg/mL (≈ 0.0117 µM) | 0.006 µg/mL (≈ 0.0117 µM) | 0.03 µg/mL (≈ 0.0585 µM) | 0.013 µg/mL (≈ 0.0254 µM)
CN(Cc1ccc(C#Cc2ccc(C(C)(C)C)cc2)cc1)CC(O)(Cn1cncn1)c1ccc(F)cc1F (stereo unspecified) | 0.025 µg/mL (≈ 0.0486 µM) | 0.013 µg/mL (≈ 0.0253 µM) | 0.8 µg/mL (≈ 1.55 µM) | 0.025 µg/mL (≈ 0.0486 µM) | 0.025 µg/mL (≈ 0.0486 µM) | 0.4 µg/mL (≈ 0.777 µM) | 0.05 µg/mL (≈ 0.0972 µM)
CN(Cc1ccc(C#Cc2ccc(Br)cc2F)cc1)CC(O)(Cn1cncn1)c1ccc(F)cc1F (stereo unspecified) | 0.006 µg/mL (≈ 0.0108 µM) | 0.006 µg/mL (≈ 0.0108 µM) | 0.03 µg/mL (≈ 0.054 µM) | 0.006 µg/mL (≈ 0.0108 µM) | 0.006 µg/mL (≈ 0.0108 µM) | 0.03 µg/mL (≈ 0.054 µM) | 0.025 µg/mL (≈ 0.045 µM)
CN(Cc1ccc(C#Cc2cncnc2)cc1)CC(O)(Cn1cncn1)c1ccc(F)cc1F (stereo unspecified) | 0.05 µg/mL (≈ 0.109 µM) | 0.025 µg/mL (≈ 0.0543 µM) | 3.2 µg/mL (≈ 6.95 µM) | 0.025 µg/mL (≈ 0.0543 µM) | 0.025 µg/mL (≈ 0.0543 µM) | 0.8 µg/mL (≈ 1.74 µM) | 0.4 µg/mL (≈ 0.869 µM)
CN(Cc1ccc(C#Cc2ccc(Br)c(F)c2)cc1)CC(O)(Cn1cncn1)c1ccc(F)cc1F (stereo unspecified) | 0.006 µg/mL (≈ 0.0108 µM) | 0.006 µg/mL (≈ 0.0108 µM) | 0.03 µg/mL (≈ 0.054 µM) | 0.006 µg/mL (≈ 0.0108 µM) | 0.006 µg/mL (≈ 0.0108 µM) | 0.01 µg/mL (≈ 0.018 µM) | 0.025 µg/mL (≈ 0.045 µM)
Cc1ccccc1C#Cc1ccc(CN(C)CC(O)(Cn2cncn2)c2ccc(F)cc2F)cc1 (stereo unspecified) | 0.006 µg/mL (≈ 0.0127 µM) | 0.013 µg/mL (≈ 0.0275 µM) | 0.1 µg/mL (≈ 0.212 µM) | 0.013 µg/mL (≈ 0.0275 µM) | 0.006 µg/mL (≈ 0.0127 µM) | 0.05 µg/mL (≈ 0.106 µM) | 0.025 µg/mL (≈ 0.0529 µM)
Cc1ccc(C#Cc2ccc(CN(C)CC(O)(Cn3cncn3)c3ccc(F)cc3F)cc2)cc1 (stereo unspecified) | 0.013 µg/mL (≈ 0.0275 µM) | 0.013 µg/mL (≈ 0.0275 µM) | 0.4 µg/mL (≈ 0.846 µM) | 0.013 µg/mL (≈ 0.0275 µM) | 0.013 µg/mL (≈ 0.0275 µM) | 0.2 µg/mL (≈ 0.423 µM) | 0.013 µg/mL (≈ 0.0275 µM)
CN(Cc1ccc(C#Cc2ccc(OC(F)(F)F)cc2)cc1)CC(O)(Cn1cncn1)c1ccc(F)cc1F (stereo unspecified) | 0.013 µg/mL (≈ 0.024 µM) | 0.013 µg/mL (≈ 0.024 µM) | 0.2 µg/mL (≈ 0.369 µM) | 0.025 µg/mL (≈ 0.0461 µM) | 0.013 µg/mL (≈ 0.024 µM) | 0.2 µg/mL (≈ 0.369 µM) | 0.05 µg/mL (≈ 0.0922 µM)
CN(Cc1ccc(C#Cc2ccc(OCc3ccccc3)cc2)cc1)CC(O)(Cn1cncn1)c1ccc(F)cc1F (stereo unspecified) | 0.013 µg/mL (≈ 0.023 µM) | 0.2 µg/mL (≈ 0.354 µM) | 0.1 µg/mL (≈ 0.177 µM) | 0.05 µg/mL (≈ 0.0886 µM) | 0.05 µg/mL (≈ 0.0886 µM) | 0.1 µg/mL (≈ 0.177 µM) | 0.1 µg/mL (≈ 0.177 µM)
CN(Cc1ccc(C#Cc2ccc(Cl)c(F)c2)cc1)CC(O)(Cn1cncn1)c1ccc(F)cc1F (stereo unspecified) | 0.006 µg/mL (≈ 0.0117 µM) | 0.006 µg/mL (≈ 0.0117 µM) | 0.01 µg/mL (≈ 0.0196 µM) | 0.006 µg/mL (≈ 0.0117 µM) | 0.006 µg/mL (≈ 0.0117 µM) | 0.03 µg/mL (≈ 0.0587 µM) | 0.013 µg/mL (≈ 0.0254 µM)
CN(Cc1ccc(C#Cc2cc(F)c(Br)cc2F)cc1)CC(O)(Cn1cncn1)c1ccc(F)cc1F (stereo unspecified) | 0.006 µg/mL (≈ 0.0105 µM) | 0.006 µg/mL (≈ 0.0105 µM) | 0.03 µg/mL (≈ 0.0523 µM) | 0.006 µg/mL (≈ 0.0105 µM) | 0.006 µg/mL (≈ 0.0105 µM) | 0.03 µg/mL (≈ 0.0523 µM) | 0.025 µg/mL (≈ 0.0436 µM)
COc1ccc(C#Cc2ccc(CN(C)CC(O)(Cn3cncn3)c3ccc(F)cc3F)cc2)cc1 (stereo unspecified) | 0.013 µg/mL (≈ 0.0266 µM) | 0.013 µg/mL (≈ 0.0266 µM) | 0.8 µg/mL (≈ 1.64 µM) | 0.013 µg/mL (≈ 0.0266 µM) | 0.013 µg/mL (≈ 0.0266 µM) | 0.2 µg/mL (≈ 0.409 µM) | 0.05 µg/mL (≈ 0.102 µM)
CC(=O)c1ccc(C#Cc2ccc(CN(C)CC(O)(Cn3cncn3)c3ccc(F)cc3F)cc2)cc1 (stereo unspecified) | 0.006 µg/mL (≈ 0.012 µM) | 0.006 µg/mL (≈ 0.012 µM) | 0.03 µg/mL (≈ 0.0599 µM) | 0.006 µg/mL (≈ 0.012 µM) | 0.006 µg/mL (≈ 0.012 µM) | 0.03 µg/mL (≈ 0.0599 µM) | 0.006 µg/mL (≈ 0.012 µM)
CN(Cc1ccc(C#Cc2ccc([N+](=O)[O-])c(F)c2)cc1)CC(O)(Cn1cncn1)c1ccc(F)cc1F (stereo unspecified) | 0.006 µg/mL (≈ 0.0115 µM) | 0.006 µg/mL (≈ 0.0115 µM) | 0.01 µg/mL (≈ 0.0192 µM) | 0.006 µg/mL (≈ 0.0115 µM) | 0.006 µg/mL (≈ 0.0115 µM) | 0.01 µg/mL (≈ 0.0192 µM) | 0.025 µg/mL (≈ 0.0479 µM)
CN(Cc1ccc(C#Cc2ccc(C=O)cc2)cc1)CC(O)(Cn1cncn1)c1ccc(F)cc1F (stereo unspecified) | 0.013 µg/mL (≈ 0.0267 µM) | 0.013 µg/mL (≈ 0.0267 µM) | 0.1 µg/mL (≈ 0.206 µM) | 0.013 µg/mL (≈ 0.0267 µM) | 0.013 µg/mL (≈ 0.0267 µM) | 0.05 µg/mL (≈ 0.103 µM) | 0.05 µg/mL (≈ 0.103 µM)
